Data set [1] in a line: Toxicity in human NCI-H1975 cells xenografted BALB/c mouse assessed as mouse mortality at 50 mg/kg, po qd for 14 consecutive days. In kind it is organism-based. Particulars: in vivo. A general note: Xenograft models place foreign cells or tissue in a host animal.
The subject of data set [2] is NCI-H1975. Briefly: Antiproliferative activity against human NCI-H1975 cells incubated for 72 hrs by SRB assay. In kind it is functional, cell-based. The following applies: NCI-H1975, 72 h. (In SRB staining, fixed cells bind dye roughly in proportion to their protein.)
Data set [3] has as its target Receptor tyrosine-protein kinase erbB-2 (Homo sapiens) (UniProt P04626). Briefly: Inhibition of human ERBB2 expressed in mammalian system assessed as remaining enzyme activity at 1000 nM relative to untreated control.
The nature of data set [4]: Cmax in ICR mouse at 10 mg/kg, po by LC-MS/MS method. In kind it is ADME, organism-based. Details: dose 10 mg/kg, route oral. The following applies: in vivo.
Data set [5] is described as follows: AUC (0 to t) in ICR mouse at 1 mg/kg, iv by LC-MS/MS method. The following applies: in vivo. In kind it is ADME, organism-based.
The target in data set [6] is Calcium/calmodulin-dependent protein kinase type 1 (Homo sapiens) (UniProt Q14012). Briefly: Inhibition of human CAMK1 expressed in bacterial system assessed as remaining enzyme activity at 1000 nM relative to untreated control.
Calcium/calmodulin-dependent protein kinase type 1 (Homo sapiens), sequence (Q14012 whole entry, looked up): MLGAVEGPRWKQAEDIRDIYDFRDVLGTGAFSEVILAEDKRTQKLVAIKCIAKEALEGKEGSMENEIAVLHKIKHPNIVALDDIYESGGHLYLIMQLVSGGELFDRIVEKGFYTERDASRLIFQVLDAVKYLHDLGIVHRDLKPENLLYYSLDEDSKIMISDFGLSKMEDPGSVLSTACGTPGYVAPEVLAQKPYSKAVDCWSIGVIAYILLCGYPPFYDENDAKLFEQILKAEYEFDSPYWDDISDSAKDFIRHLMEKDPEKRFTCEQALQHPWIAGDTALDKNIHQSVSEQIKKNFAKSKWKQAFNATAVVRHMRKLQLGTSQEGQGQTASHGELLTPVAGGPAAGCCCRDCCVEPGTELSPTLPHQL
Data set [7] deals with NCI-H1975. Put plainly: Antitumor activity against human NCI-H1975 cells xenografted in BALB/c mouse assessed as inhibition of tumor growth at 50 mg/kg, po qd for 14 consecutive days. Particulars: read-out: TGI. In kind it is functional.
For a further data set, the system named is Mus musculus. Briefly: Inhibition of EGFR kinase domain L858R/T790M mutant phosphorylation in human NCI-H1975 cells xenografted BALB/c mouse at 50 mg/kg, po qd for 14 consecutive days by Western blot method. It counts as functional, organism-based.
Data set [8] addresses T1, Tyrosine-protein kinase TXK (Homo sapiens) (UniProt P42681).
T1 sequence (whole entry): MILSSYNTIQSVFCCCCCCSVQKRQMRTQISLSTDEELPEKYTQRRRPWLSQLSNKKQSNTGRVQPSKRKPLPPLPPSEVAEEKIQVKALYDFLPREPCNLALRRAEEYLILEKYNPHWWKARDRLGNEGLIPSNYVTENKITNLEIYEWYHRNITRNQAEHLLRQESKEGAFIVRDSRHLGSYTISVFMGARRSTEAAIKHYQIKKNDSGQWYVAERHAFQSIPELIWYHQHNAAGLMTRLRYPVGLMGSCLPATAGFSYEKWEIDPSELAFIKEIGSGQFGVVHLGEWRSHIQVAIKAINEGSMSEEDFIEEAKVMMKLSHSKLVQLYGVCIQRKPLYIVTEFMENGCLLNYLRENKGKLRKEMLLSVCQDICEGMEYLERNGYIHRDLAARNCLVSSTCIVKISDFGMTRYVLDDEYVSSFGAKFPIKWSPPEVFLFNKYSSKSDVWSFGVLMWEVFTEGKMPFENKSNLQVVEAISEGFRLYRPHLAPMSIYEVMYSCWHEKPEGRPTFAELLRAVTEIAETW
Briefly: Inhibition of human TXK expressed in bacterial system assessed as remaining enzyme activity at 1000 nM relative to untreated control.

Data set [9] in a line: Tmax in ICR mouse at 1 mg/kg, iv by LC-MS/MS method. Particulars: in vivo. It counts as ADME, organism-based.
A short description of data set [10]: Cmax in ICR mouse at 1 mg/kg, iv by LC-MS/MS method. It counts as ADME, organism-based. Also on record: dose 1 mg/kg, route intravenous. The following applies: in vivo.
Data set [11] addresses T2, Mitogen-activated protein kinase kinase kinase 6 (Homo sapiens) (UniProt O95382).
T2 sequence (whole entry): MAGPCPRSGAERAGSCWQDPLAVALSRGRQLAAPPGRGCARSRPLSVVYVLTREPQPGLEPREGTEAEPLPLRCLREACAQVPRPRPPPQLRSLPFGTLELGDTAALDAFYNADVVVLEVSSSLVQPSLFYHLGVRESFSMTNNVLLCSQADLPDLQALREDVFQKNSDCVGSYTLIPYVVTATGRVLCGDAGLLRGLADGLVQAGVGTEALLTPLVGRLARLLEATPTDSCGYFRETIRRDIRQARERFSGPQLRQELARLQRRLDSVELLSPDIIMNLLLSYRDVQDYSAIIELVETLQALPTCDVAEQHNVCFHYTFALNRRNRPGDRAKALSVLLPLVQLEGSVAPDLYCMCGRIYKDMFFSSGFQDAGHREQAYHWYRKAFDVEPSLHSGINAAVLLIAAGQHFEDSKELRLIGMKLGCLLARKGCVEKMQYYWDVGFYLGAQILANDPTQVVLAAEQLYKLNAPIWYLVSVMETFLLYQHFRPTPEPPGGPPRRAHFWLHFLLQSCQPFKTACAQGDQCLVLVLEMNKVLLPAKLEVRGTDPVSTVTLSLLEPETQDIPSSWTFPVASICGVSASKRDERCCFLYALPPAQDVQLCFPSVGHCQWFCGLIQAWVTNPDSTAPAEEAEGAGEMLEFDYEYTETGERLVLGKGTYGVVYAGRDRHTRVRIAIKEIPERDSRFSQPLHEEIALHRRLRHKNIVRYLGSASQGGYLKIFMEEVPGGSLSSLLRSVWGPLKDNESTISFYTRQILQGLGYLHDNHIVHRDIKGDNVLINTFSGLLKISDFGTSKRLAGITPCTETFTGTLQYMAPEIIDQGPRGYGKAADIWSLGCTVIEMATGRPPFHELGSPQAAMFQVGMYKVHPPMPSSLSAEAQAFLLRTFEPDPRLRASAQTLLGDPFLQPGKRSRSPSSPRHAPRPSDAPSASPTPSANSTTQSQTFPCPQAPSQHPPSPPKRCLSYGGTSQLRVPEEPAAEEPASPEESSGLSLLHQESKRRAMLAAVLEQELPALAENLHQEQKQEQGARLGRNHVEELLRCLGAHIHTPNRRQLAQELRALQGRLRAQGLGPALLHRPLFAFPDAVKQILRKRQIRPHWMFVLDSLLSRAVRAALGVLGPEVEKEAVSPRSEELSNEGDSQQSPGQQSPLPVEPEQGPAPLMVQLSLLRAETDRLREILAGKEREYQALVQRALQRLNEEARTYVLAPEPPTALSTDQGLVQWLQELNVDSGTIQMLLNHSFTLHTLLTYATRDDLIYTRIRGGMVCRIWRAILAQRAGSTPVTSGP
Put plainly: Inhibition of human ASK2 expressed in mammalian system assessed as remaining enzyme activity at 1000 nM relative to untreated control.

The nature of data set [12]: Dissociation constant, pKa of the compound by Sirius T3 based assay. It counts as physicochemical.
A short description of data set [13]: Oral bioavailability in ICR mouse at 10 mg/kg by LC-MS/MS method. In kind it is ADME, organism-based. Particulars: in vivo.
A short description of data set [14]: Half life in mouse liver microsomes at 1 uM in presence of NADPH by LC-MS/MS method. In kind it is ADME, Microsome. In general terms: Microsomes from liver hold many membrane-bound enzymes, among them those of drug oxidation.
Data set [15] can be described thus: Tmax in ICR mouse at 10 mg/kg, po by LC-MS/MS method. It counts as ADME, organism-based. The following applies: in vivo.
The test system of another data set is A-431. Briefly: Antiproliferative activity against human A431 cells incubated for 72 hrs by SRB assay. Particulars: A-431, 72 h. It counts as functional, cell-based.
Data set [16] in a line: AUC (0 to infinity) in ICR mouse at 1 mg/kg, iv by LC-MS/MS method. In kind it is ADME, organism-based. Details: dose 1 mg/kg, route intravenous, time infinity. Particulars: in vivo.
A short description of data set [17]: Thermodynamic solubility of the compound in 0.1M PBS buffer at pH 7.4 by UV-visible spectrophotometry. Particulars: read-out: Therm_solubility. In kind it is physicochemical.
Data set [18] is described as follows: Apparent volume of distribution in ICR mouse at 1 mg/kg, iv by LC-MS/MS method. In kind it is ADME, organism-based. The following applies: in vivo, read-out: Vz.

Converted amounts (≈) assume the structure as drawn. The source made the active and inactive calls. The rule behind the calls is not given here.

For orientation: IC50 means the concentration needed to halve the response being measured. Low values mean greater potency in that assay, high ones weaker potency in that assay. As usually defined, the Cmax is the peak of the concentration-time curve. By AUC(0-t) is commonly meant the area under the concentration-time curve up to a stated or last time point. High values mean high exposure, low ones low exposure. As usually defined, the Tmax is the time at which the peak concentration occurs. As usually defined, the pKa is the negative logarithm of the acid dissociation constant. What is called bioavailability is the share of a dose that reaches the circulation, judged against a reference dose that is usually intravenous. Low readings indicate poor availability, high ones good availability. For orientation: half-life means how long it takes for the measured level to halve. As a reminder, the AUC(0-inf) is total exposure, with the tail of the curve extrapolated. Read a low AUC(0-inf) as low exposure.

Receptor tyrosine-protein kinase erbB-2 (Homo sapiens), sequence (P04626 whole entry): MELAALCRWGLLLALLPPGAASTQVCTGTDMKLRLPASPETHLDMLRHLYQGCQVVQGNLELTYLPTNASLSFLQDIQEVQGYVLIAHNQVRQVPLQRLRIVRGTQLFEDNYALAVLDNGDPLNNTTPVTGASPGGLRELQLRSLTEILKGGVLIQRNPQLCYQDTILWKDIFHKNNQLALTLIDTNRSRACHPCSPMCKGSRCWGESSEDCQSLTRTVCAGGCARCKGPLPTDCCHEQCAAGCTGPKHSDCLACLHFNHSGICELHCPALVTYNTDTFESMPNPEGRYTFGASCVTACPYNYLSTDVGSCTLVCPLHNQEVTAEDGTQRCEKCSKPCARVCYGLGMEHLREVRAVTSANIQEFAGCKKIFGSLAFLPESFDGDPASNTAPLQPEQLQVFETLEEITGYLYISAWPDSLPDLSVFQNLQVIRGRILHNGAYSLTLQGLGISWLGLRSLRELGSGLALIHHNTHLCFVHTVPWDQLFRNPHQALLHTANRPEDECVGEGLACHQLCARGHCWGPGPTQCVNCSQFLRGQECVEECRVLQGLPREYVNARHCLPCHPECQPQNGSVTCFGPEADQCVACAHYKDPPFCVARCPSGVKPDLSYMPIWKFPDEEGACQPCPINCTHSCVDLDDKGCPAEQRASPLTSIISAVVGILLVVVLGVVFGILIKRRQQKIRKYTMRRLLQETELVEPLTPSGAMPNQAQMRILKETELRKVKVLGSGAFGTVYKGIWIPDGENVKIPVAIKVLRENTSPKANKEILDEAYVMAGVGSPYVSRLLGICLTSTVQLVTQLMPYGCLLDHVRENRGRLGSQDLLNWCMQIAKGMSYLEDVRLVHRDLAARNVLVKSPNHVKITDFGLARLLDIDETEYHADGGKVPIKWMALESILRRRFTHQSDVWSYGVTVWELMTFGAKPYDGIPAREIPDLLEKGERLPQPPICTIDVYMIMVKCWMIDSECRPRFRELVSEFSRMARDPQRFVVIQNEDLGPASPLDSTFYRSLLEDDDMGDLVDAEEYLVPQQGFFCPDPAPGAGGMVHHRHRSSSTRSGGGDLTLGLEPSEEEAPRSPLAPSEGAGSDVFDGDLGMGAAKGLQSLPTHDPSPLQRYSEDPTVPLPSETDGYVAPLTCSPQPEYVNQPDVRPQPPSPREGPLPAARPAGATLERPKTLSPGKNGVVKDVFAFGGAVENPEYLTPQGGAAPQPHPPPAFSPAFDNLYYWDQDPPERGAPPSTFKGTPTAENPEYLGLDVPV

`C=CC(=O)Nc1cccc(-n2c(=O)c(=O)n(C(C)C)c3cnc(Nc4ccc(N5CCN(C)CC5)cc4OC)nc32)c1`: the Activity entry in [1] is “Non-Toxic”; in [3], less than 1%; in data set [6], less than 1%; in data set [8], less than 1%; in [11], less than 1%. For the same compound, the IC50 worked out at 0.018 µM in the data set with NCI-H1975 [2] and 7.77 µM in the data set with A-431. For the same compound, the figures for the Cmax in data set [4] and in data set [10] were 136 ng/mL and 258 ng/mL, respectively. For the same compound, the exposure AUC(0-t) in data set [5] was 140 ng·h/mL. For the same compound, the inhibition in vivo at 50 mg/kg in the data set with NCI-H1975 [7] amounted to 52%. For the same compound, the inhibition result in the data set with Mus musculus is “Active”. The results for the Tmax in data set [9] and in data set [15] were 54 min and 120 min, respectively. The pKa in [12] is 7.7. The same compound registered a bioavailability in data set [13] of 48%. Moreover, the half-life at 1 µM in data set [14] amounted to 51 min. Further, the AUC(0-inf) in data set [16] worked out at 143 ng·h/mL. Besides, the solubility thermodynamic in [17] worked out at 41 µg/mL (≈ 71.8 µM). The Vd in data set [18] amounted to 8.01 L/kg.

For the origin of these results see ChEMBL document CHEMBL4425144, “Discovery and Structural Optimization of N5-Substituted 6,7-Dioxo-6,7-dihydropteridines as Potent and Selective Epidermal Growth Factor Receptor (EGFR) Inhibitors against L858R/T790M Resistance Mutation” (J Med Chem, 2016).
